Experimental data as given in patent US5773438A, “Synthetic matrix metalloprotease inhibitors and use thereof” (Glycomed Incorporated, priority 1994, dated 1998).

Legend:
[1] = biological target: T1, human skin fibroblast collagenase (Homo sapiens, UniProt P03956); assay: inhibition of collagenase, synthetic thiol ester substrate, Ki (Table 1); type: biochemical
T1 construct: endogenous in cells; host or cells: human skin fibroblasts
T1 sequence (P03956 100-469): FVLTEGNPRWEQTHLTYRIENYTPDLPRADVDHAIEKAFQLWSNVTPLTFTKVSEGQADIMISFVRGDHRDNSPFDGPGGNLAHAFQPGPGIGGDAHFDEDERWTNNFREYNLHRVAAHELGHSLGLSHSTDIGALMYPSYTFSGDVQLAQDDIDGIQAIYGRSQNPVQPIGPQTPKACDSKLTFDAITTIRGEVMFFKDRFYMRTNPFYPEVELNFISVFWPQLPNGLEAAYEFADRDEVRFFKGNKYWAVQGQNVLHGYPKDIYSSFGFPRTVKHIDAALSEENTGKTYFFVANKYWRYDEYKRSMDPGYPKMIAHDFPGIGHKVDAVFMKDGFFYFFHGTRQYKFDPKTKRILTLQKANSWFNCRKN
Protocol: Specifically, assay of inhibition activity can be conducted as follows. Inhibitors may be assayed against crude or purified human skin fibroblast collagenase, or purified human gingival fibroblast collagenase using the synthetic thiol ester substrate at pH 6.5 exactly as described by Kortylewicz & Galardy, J Med Chem (1990) 33:263-273, at a collagenase concentration of 1-2 nM. The candidate inhibitors are tested for their ability to inhibit crude collagenase and gelatinase from human skin fibroblasts, crude collagenase and gelatinase from purulent human neutrophils in this assay.

Stromelysin = Stromelysin (Homo sapiens, UniProt P08254); assay: inhibition of stromelysin (Table 2); type: biochemical; conditions: read-out: Strom inhibitory activity
Chain of Stromelysin (P08254 100-477): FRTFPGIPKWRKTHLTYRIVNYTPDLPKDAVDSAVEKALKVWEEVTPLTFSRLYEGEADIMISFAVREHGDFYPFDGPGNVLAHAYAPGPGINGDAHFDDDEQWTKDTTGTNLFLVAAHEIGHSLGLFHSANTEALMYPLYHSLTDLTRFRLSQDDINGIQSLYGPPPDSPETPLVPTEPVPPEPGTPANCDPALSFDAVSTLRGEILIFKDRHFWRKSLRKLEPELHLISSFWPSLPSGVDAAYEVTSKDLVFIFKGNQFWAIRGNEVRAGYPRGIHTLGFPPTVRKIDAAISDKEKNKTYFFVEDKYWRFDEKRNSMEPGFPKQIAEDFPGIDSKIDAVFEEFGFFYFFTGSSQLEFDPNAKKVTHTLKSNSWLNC
Protocol: (§1) Specifically, assay of inhibition activity can be conducted as follows. […] Assays for inhibition of human stromelysin are conducted as described by Teahan, J., et al., Biochemistry (1989) 20:8497-8501.
(§2) Assay of inhibition activity can be conducted using a fluorogenic substrate developed by Knight et al., FEBS Letters (1992) 296:263. This method uses a fluorometer to determine the rate of substrate hydrolysis in a 96 well plate format. Reaction rates are determined at several substrate concentrations, and multiple inhibitor levels. The data are analyzed by Lineweaver-Burk, Dixon and Henderson plot analyses (Enzyme Kinetics (1975) Irwin Segal (John Wiley & Sons, Inc., publishers), and as described by Henderson, Biochem J. (1972) 127:321). The substrate levels range from 10-30μM. […] Inhibitors may be assayed against purified 72 kD gelatinase, 92 kD gelatinase, neutrophil collagenase, stromelysin or other proteases as appropriate. The enzymes are activated at 37° C. with APMA (4-aminophenylmercuric acetate), and the assays are carried out at room temperature.

[2] = biological target: T2, Natural human 72kD gelatinase (Homo sapiens, UniProt P08253); assay: inhibition of 72kD gelatinase (Table 2); type: biochemical; conditions: read-out: 72kD G inhibitory activity
T2 sequence (P08253 110-660): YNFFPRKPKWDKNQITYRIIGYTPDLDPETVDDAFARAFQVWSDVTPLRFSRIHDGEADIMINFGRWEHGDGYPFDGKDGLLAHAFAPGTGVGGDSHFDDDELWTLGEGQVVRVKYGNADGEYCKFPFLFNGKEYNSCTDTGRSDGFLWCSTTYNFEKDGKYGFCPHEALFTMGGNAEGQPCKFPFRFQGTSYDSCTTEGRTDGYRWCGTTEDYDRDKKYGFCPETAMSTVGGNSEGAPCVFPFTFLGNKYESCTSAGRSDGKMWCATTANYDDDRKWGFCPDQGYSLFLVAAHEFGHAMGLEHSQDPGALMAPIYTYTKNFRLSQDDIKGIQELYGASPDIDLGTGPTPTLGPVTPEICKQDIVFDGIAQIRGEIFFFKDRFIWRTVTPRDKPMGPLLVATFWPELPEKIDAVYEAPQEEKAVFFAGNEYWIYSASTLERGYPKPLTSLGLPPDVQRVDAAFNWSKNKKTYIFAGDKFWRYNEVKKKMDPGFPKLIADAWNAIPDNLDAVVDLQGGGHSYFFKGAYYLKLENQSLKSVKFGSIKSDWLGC
Protocol: as §1, §2

[3] = biological target: T3, Human gingival fibrblast collagenase (Homo sapiens, UniProt P03956); assay: inhibition of human gingival fibroblast collagenase (Table 2); type: biochemical; conditions: read-out: HGFC inhibitory activity
T3 construct: endogenous in cells; host or cells: human gingival fibroblasts
T3 sequence (P03956 100-469): T1 sequence (P03956 100-469)
Protocol: as §1, §2

[4] = biological target: Recombinant neutrophil collagenase (Homo sapiens, UniProt P22894); assay: inhibition of recombinant neutrophil collagenase (Table 2); type: biochemical; conditions: read-out: NC inhibitory activity
Chain of Recombinant neutrophil collagenase (P22894 101-467): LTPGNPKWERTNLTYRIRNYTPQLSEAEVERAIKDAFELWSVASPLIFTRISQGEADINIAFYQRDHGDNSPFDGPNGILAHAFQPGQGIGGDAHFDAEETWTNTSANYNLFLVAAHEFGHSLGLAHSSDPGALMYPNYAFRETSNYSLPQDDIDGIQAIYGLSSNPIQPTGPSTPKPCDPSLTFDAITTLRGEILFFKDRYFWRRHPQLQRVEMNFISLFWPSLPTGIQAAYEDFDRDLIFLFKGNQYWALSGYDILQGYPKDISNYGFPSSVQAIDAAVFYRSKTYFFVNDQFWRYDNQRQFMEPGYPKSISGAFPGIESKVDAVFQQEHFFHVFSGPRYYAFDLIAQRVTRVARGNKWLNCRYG
Protocol: as §1, §2

[5] = system: protease activity of chronic wound fluid; assay: Azocoll assay of protease activity in chronic wound fluid; type: biochemical, human; conditions: FIG. 7; for inhibition of protease activity of chronic wound fluid: highest concentration (800 μg/ml)
Protocol: Fluids were collected from 3 types of human wounds termed closed spontaneously healing wounds, open slowly healing wounds, and open chronic wounds. In the first category were fluids collected from the chest wall of women following mastectomy surgery. Fluids from non-infected wounds that were left open for valid surgical reasons were considered open slowly healing wounds. An occlusive dressing was placed over the wound bed, and fluids were collected after 2-6 hours of occlusion. Finally, fluids were also collected from chronic open wounds by covering the wounds with occlusive dressings. Wounds were considered to be chronic if they were not clinically infected and had been open and not healing for more than 4 weeks.
The various wound fluids were assayed for matrix metalloproteinase activity using the Azocoll assay essentially as described by Chavira, et al., Analytic Biochemistry (1984), 136:446.
The fluids were centrifuged, and the supernatants filtered using a 0.45μ sterile Gelman filter. The filtrates were stored frozen at -80° C. until tested for protease activity.
The effects of four inhibitors on the protease activity present in wound fluids were determined. The inhibitors were: compounds
Stock solutions of the four inhibitors were all prepared at a concentration of 800 μg/ml. Due to different solubility properties of the inhibitors, different techniques were utilized. […] S1209 was dissolved in 1% DMSO then dissolved in 10 mM citrate, pH 5.5, containing 0.05% methyl cellulose. 39A was dissolved in propylene glycol (to give a final concentration of 2.4%) then dissolved in 1 mM CaCl2, 50 mM Tris-Cl, pH 7.8. 21A was dissolved in propylene glycol (2.4%) methyl cellulose (0.05%) and 10 mM citrate, pH 8.
The protease substrate, Azocoll, was obtained from Sigma Chemical Corporation and it is a substrate for collagenase/gelatinase-like metalloproteinase enzymes and general proteases. Clostridium histolyticum collagenase (the crude form of the enzyme) was from Worthington Biochemicals. General chemicals including TRIS buffer, DMSO, and CaCl2 were from Sigma Chemical Corporation.
Briefly, 900 μl of the Azocoll substrate suspension in buffer ([…] in 50 mM TRIS, pH 7.8, 1 mM CaCl2) was added to 1.5 ml microcentrifuge tubes then 50 μl of inhibitor (or buffer) and 50 μl of chronic wound fluid (or collagenase standard) were added to the reaction tube. The reaction tubes were placed at 37° C. in a shaker that inverted the tubes 30 times per minute. After 24 hours of incubation, the reaction tubes were centrifuges at 10,000 X g and the absorbance of the supernatant solution was measured at 520 nm with a Milton-Roy spectrophotometer. Proteolysis of Azocoll substrate generates soluble colored fragments from the insoluble Azocoll substrate. Wound fluid samples were incubated alone or with the inhibitors. Controls included incubation of the Azocoll substrate with the assay buffer to measure spontaneous degradation of the substrate. A standard curve for digestion of the Azocoll substrate was generated by incubation of the Azocoll with crude bacterial collagenase. Protease levels were expressed as net μg of collagenase equivalent per ml of chronic wound fluid. In the figures, certain of the wound fluids are referred to by an individual name.
For these experiments, due to the different solubility properties of the inhibitors, different techniques were utilized. […] S1209 was dissolved in 1% DMSO then dissolved in 10 mM citrate, pH 5.5, containing 0.05% methyl cellulose. 39A was dissolved in propylene glycol (to give a final concentration of 2.4%) then dissolved in 1 mM CaCl2, […] Tris-Cl, pH 7.8. 21A was dissolved in propylene glycol (2.4%) methyl cellulose (0.05%) and 10 mM citrate, pH 8.

[6] = system: PdiBu-Induced Epidermal Hyperplasia; assay: PdiBu-induced epidermal hyperplasia mouse model (psoriasis); type: in vivo, hairless mice; conditions: topical
Protocol: The phorbol ester, PdiBu (20 nmol in 20 μl if acetone) was applied to both ears of hairless mice (h/h) (approximately 1 cm^2 each). The test compounds (in total volume of 20 μl) were then applied to the right ear immediately (15 to 30 min) following PdiBu. The left ear of each animal received an equivalent amount (20 μl) of vehicle. Test compounds (and vehicle) were reapplied at 6 and 18 hours following PdiBu. Treatment times were staggered to allow exact time intervals to be obtained. At 30 hours after PdiBu, animals were anesthetized, and ear thickness values were obtained using a microcaliper. The weights of punch biopsies (6mm) were then obtained. Histology was performed on selected samples taken at 30 hours.
Left ear in each animal served as vehicle-treated controls (PdiBu+ETOH). Thus, the controls for this series include: 1) Untreated controls; 2) PdiBu plus vehicle alone (included for each mouse tested); 3) PdiBu plus AHA; 4) PdiBu plus Lidex® as a positive control.

Question: For CNC(=O)[C@H](Cc1c[nH]c2ccccc12)NC(=O)C1CCCCC1C(=O)NO (mixture of isomers) [29A,B, N-[(±)cis-2-(N'-hydroxyamidocarbonyl)-cyclohexylcarbonyl]-L-tryptophan methylamide], which Ki [1] is on record?
Answer: > 10000 nM

Question: Which Ki [1] does the source give for CNC(=O)[C@H](Cc1c[nH]c2ccccc12)NC(=O)[C@@H]1CCCC[C@@H]1C(=O)O (mixture of isomers) [Compound 35, N-[(+)cis-2-carboxy-cyclohexylcarbonyl]-L-tryptophan methylamide] here?
Answer: > 10000 nM

Question: How did the Ki [1] turn out when CNC(=O)[C@H](Cc1c[nH]c2ccccc12)NC(=O)[C@@H]1CCCC[C@H]1C(=O)O (mixture of isomers) [Compound 36, N-[(+)trans-2-carboxy-cyclohexylcarbonyl]-L-tryptophan methylamide] was run?
Answer: > 10000 nM

Question: For CNC(=O)[C@H](Cc1c[nH]c2ccccc12)N(C)C(=O)C(CC(=O)NO)CC(C)C (single isomer, unassigned) [Compound 9A, N-[2-isobutyl-3-(N'-hydroxyamidocarbonyl)-propanoyl]-N-methyl-L-tryptophanmethylamide], which Ki (Stromelysin) is on record?
Answer: > 1000 nM

Question: And the Ki [2]?
Answer: 32 nM

Question: What about the Ki [3] of the same compound?
Answer: 5 nM

Question: What about the Ki [4] of the same compound?
Answer: 29 nM

Question: What about the Ki [1] of the same compound?
Answer: 500 nM

Question: How did the Ki [3] turn out when CNC(=O)[C@H](Cc1ccc2ccccc2c1)NC(=O)C(CC(=O)NO)CC(C)C (single isomer, unassigned) [Compound 11A, N-[2-isobutyl-3-(N-hydroxyamidocarbonyl)-propanoyl]-L-3-(2-naphthyl)-alanine methylamide] was run?
Answer: 0.3 nM

Question: And the Ki [1]?
Answer: 15 nM

Question: With CC(C)CC(CC(=O)NO)C(=O)N[C@@H](Cc1c[nH]c2ccccc12)C(=O)NCCO (single isomer, unassigned) [Compound 13A, N-[2-isobutyl-3-(N'-hydroxyamidocarbonyl)-propanoyl]-L-tryptophan 2-hydroxyethylamide] as the compound, how does the Ki [3] read?
Answer: 1 nM

Question: What about the Ki [1] of the same compound?
Answer: 20 nM

Question: For COC(=O)CC(CC(C)C)C(=O)N[C@@H](Cc1c[nH]c2ccccc12)C(=O)N[C@@H](C)c1ccccc1 (single isomer, unassigned) [Compound 20A], which Ki [3] is on record?
Answer: 0.2 nM

Question: Which results are given for CC(C)CC(CC(=O)NO)C(=O)N[C@@H](Cc1c[nH]c2ccccc12)C(=O)N[C@@H](C)c1ccccc1 (single isomer, unassigned) [Compound 21A]?
Answer: Ki [1]: 3 nM; inhibition of protease activity of chronic wound fluid [5]: 94%

Question: For CC(C)CC(CC(=O)O)C(=O)N[C@@H](Cc1c[nH]c2ccccc12)C(=O)NCC(=O)O (single isomer, unassigned) [Compound 34A, N-[N-(2-Isobutyl-3-carboxypropanoyl)-L-tryptophanyl]glycine], which Ki [1] is on record?
Answer: > 10000 nM

Question: For CC(C)CC(CC(=O)O)C(=O)N[C@@H](Cc1c[nH]c2ccccc12)C(=O)NCC(=O)O (single isomer, unassigned) [Compound 34B, N-[N-(2-Isobutyl-3-carboxypropanoyl)-L-tryptophanyl]glycine], which Ki [1] is on record?
Answer: > 10000 nM

Question: With CC(C)CC(CC(=O)NO)C(=O)N[C@@H](Cc1c[nH]c2ccccc12)C(=O)N1CCCCC1 (stereo partly drawn) [17A,B, N-[2-isobutyl-3-(N'-hydroxyamidocarbonyl)-propanoyl]-L-tryptophan piperidinamide] as the compound, how does the Ki [1] read?
Answer: 200 nM

Question: With CNC(=O)[C@H](Cc1c[nH]c2ccccc12)NC(=O)[C@H](CC(=O)NO)CC(C)C [Compound 5B, N-[D,L-2-isobutyl-3-(N'-hydroxycarbonylamido)-propanoyl]-tryptophan methylamide] as the compound, how does the Ki (Stromelysin) read?
Answer: > 1000 nM

Question: What does the source list for CCCCCNC(=O)[C@H](Cc1c[nH]c2ccccc12)NC(=O)C(CC(=O)NO)CC(C)C (stereo partly drawn) [Compound 15A, N-[2-isobutyl-3-(N'-hydroxyamidocarbonyl)-propanoyl]-L-tryptophan amylamide]?
Answer: Ki [3]: 0.3 nM; Ki [1]: 30 nM

Question: With CC(C)CC(CC(=O)NO)C(=O)N[C@@H](Cc1c[nH]c2ccccc12)C(=O)O (stereo partly drawn) [Compound 31A, N-[2-Isobutyl-3-(N'-hydroxyamidocarbonyl)-propanoyl]-L-tryptophan] as the compound, how does the Ki [1] read?
Answer: 200 nM

Question: How did the Ki [1] turn out when CC(C)CC(CC(=O)O)C(=O)N[C@@H](Cc1c[nH]c2ccccc12)C(=O)NCCCCCCN (stereo partly drawn) [Compound 32A, N-(D,L-2-Isobutyl-3-carboxypropanoyl)-L-tryptophan (6-aminohexyl-1)amide] was run?
Answer: > 10000 nM

Question: Which “effect on proteolytic degradation of Azocoll by chronic wound fluid” value [5] does the source give for CC(C)C[C@H](CC(=O)O)C(=O)N[C@@H](Cc1c[nH]c2ccccc12)C(=O)N[C@@H](C)c1ccccc1 [Compound 39A, N-(2R-2-Carboxymethyl-4-methylpentanoyl)-L-tryptophan (S)-methylbenzyl amide] here?
Answer: significantly less potent that 5A, 21A, or S1209

Question: And the “increase in protease activity of chronic wound fluid” value ([5]; 0.8 μg/ml)?
Answer: 30%

Question: And the “increase in protease activity of chronic wound fluid” value ([5]; 8 μg/ml)?
Answer: 13%

Question: And the “inhibition of protease activity of chronic wound fluid” value [5]?
Answer: 23%

Question: CC(C)C[C@H](CC(=O)O)C(=O)N[C@@H](Cc1c[nH]c2ccccc12)C(=O)NCCN1CCOCC1 [Compound 51] was tested. Which Ki [3] did it give?
Answer: 32 nM

Question: CC(C)C[C@H](CC(=O)O)C(=O)N[C@@H](Cc1c[nH]c2ccccc12)C(=O)NCCc1ccccc1 [Compound 58, N-[2-Isobutyl-3-hydroxycarbonylpropanoyl]-L-tryptophan-2(phenyl)ethylamide] was tested. Which Ki (Stromelysin) did it give?
Answer: 10600 nM

Question: And the Ki [2]?
Answer: 79 nM

Question: And the Ki [4]?
Answer: 26 nM

Question: Which results are given for CC(C)C[C@H](CC(=O)O)C(=O)N[C@@H](Cc1c[nH]c2ccccc12)C(=O)NCCc1ccc(S(N)(=O)=O)cc1 [Compound 59]?
Answer: Ki (Stromelysin): 38200 nM; Ki [2]: 265 nM; Ki [4]: 85 nM

Question: CC(=O)OCC(=O)[C@@]12OC(C)(C)O[C@@H]1C[C@H]1[C@@H]3C[C@H](F)C4=CC(=O)C=C[C@]4(C)[C@@]3(F)[C@@H](O)C[C@@]12C [Lidex, fluocinonide, reference compound] was tested. Which “effect on PdiBu-induced ear thickness” value [6] did it give?
Answer: significantly inhibited

Question: And the “effect on PdiBu-induced increase in punch biopsy weight” value [6]?
Answer: significantly inhibited
